Test results taken from article PMC8976160 (Drug Design, Development and Therapy, 2022).

Target: T1, human Glx-I enzyme (Homo sapiens, UniProt Q04760)
T1 sequence (Q04760 2-184 limits assumed): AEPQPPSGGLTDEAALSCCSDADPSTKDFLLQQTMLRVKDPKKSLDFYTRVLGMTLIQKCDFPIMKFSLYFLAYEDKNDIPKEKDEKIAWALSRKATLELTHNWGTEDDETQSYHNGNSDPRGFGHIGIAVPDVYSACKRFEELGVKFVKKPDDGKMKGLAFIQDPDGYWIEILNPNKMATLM
Test: Glx-I inhibitory activity in vitro
Assay type: biochemical
Details: for inhibition at 25 µM: read-out: % Inhibition at 25 μM

Row | IC50 | inhibition at 25 µM | Compound
1 | 39.1 ± 5.31 µM | 46.2% | Nc1ccc(/N=N/c2ccc(S(N)(=O)=O)cc2)c2cc(O)ccc12 [Compound 13, (E)-4-((4-amino-7-hydroxynaphthalen-1-yl)diazenyl)benzenesulfonamide]
2 | 0.39 ± 0.03 µM | 97.4% | NS(=O)(=O)c1ccc(/N=N/c2ccc(O)c(C(=O)O)c2)cc1 [Compound 26, (E)-2-hydroxy-5-((4-sulfamoylphenyl)diazenyl)benzoic acid]
